From BindingDB's records for PubMed 38457911 (China Pharmaceutical University)

Experiments:
[1] = target: E3 ubiquitin-protein ligase CBL; assay: Inhibition of c-Cbl (unknown origin) by HTRF method
[2] = target: E3 ubiquitin-protein ligase CBL; assay: Inhibition of c-Cbl (unknown origin) by TR-FRET assay
[3] = target: E3 ubiquitin-protein ligase CBL; assay: Inhibition of c-Cbl (unknown origin) expressed in Escherichia coli measured for 90 mins by HTRF method
[4] = target: E3 ubiquitin-protein ligase CBL (Homo sapiens) (UniProt P22681); assay: Binding affinity to c-Cbl (unknown origin) assessed as dissociation constant by SPR assay

Work on `CC(C)[C@H]1CN(C)CCN1Cc1cc(C(=O)Nc2cccc(C3([C@@H](F)c4nncn4C)CC(F)(F)C3)c2)nc(C2CC2)c1` yielded an IC50 [1] of 8 nM.
For `Cn1cnnc1-c1cc(C#N)ccc1-c1cc(C2CC2)nc(N2Cc3c(cc(CNCC4(F)CCC4)cc3C(F)(F)F)C2=O)c1`, the IC50 [1] was < 200 nM.
With `C[C@H]1CCCN(Cc2cc(C(F)(F)F)c3[nH]c(-c4cccc([C@]5(c6nncn6C)C[C@@H](C)C5)c4)nc3c2)C1` the IC50 [2] was > 10000 nM.
With `Cn1cnnc1[C@]1(c2cccc(NC(=O)c3cc(CN4CCC[C@H](C(F)F)C4)cn4ccnc34)c2)C[C@H](CC#N)C1` the IC50 [3] was 10 nM.
`CC(c1cc(C(=O)Nc2cccc([C@]3(c4nncn4C)C[C@@H](CC#N)C3)c2)nc2cc[nH]c12)N1CCC[C@H](C)C1` (stereo partly specified) was tested, and the IC50 [3] was 40 nM.
With `COCC1(NCc2cc3c(c(C(F)(F)F)c2)CN(c2cccc([C@]4(c5nncn5C)C[C@H](OC)C4)c2)C3=O)CC1` [2-(3-((1r,3r)-3-methoxy-1-(4-methyl-4H-1,2,4-triazol-3-yl)cyclobutyl)phenyl)-6-(((1-(methoxymethyl)cyclopropyl)amino)methyl)-4-(trifluoromethyl)isoindolin-1-one] the Kd [4] was 210 nM.
